“Also recorded” adds a separate entry of the source.
Tests used:
[1] = test system: human UGTs; experiment: Recombinant human UGT screen: glucuronidation rates across human UGTs; type: biochemical; details: 10 μM aglycone
Procedure: Recombinant human UGTs 1A1, 1A3, 1A6, 1A7, 1A8, 1A9, 1A10, 2A1, 2A2, 2A3, 2B4, 2B10, 2B7, and 2B17 were produced, as His-tagged proteins, in baculovirus-infected insect cells as previously described.[37]−[39] The relative expression level of each of these recombinant UGTs was evaluated by immunodetection, using monoclonal antibody against the His-tag, as described elsewhere.[40] A numeric value of 1.0 was given to the expression level of UGT1A8 and the relative expression level of each of the other UGTs was related to this value. Normalized activities were obtained by dividing the glucuronidation rate values by the relative expression level of the tested UGT. In addition, UGTs 1A4, 2B10, and 2B15 were purchased from Corning Life Sciences (New York) and are marked, in Figure 5, with a “C” to indicate that they are commercial enzymes. The expression levels of the UGTs in the commercial samples could not be determined, so their protein concentration was used to calculate the reaction rate.
(§1) The incubation mixtures for glucuronidation assays contained 100 mM Tris-HCl buffer pH 7.4, 2.5 mM MgCl2, 0.5 mM UDPGA, recombinant UGT, or microsomes as the enzyme source and 0–15 μM of the test aglycone substrate. When the incubation mixtures contained microsomes, alamethicin was used at a final concentration of 12.5 μg/mL, but it was not included in the recombinant enzyme assays.[43] In the first experiments three negative control samples were tested, namely (i) without the substrate 7-hydroxycoumarin derivative, (ii) without the cofactor UDPGA, or (iii) without the enzyme source. In subsequent experiments, the control samples lacked the enzyme source since it gave the highest fluorescence background. Preliminary experiments were done under different conditions than most of the later assays, namely in 2.5 mL of 100 mM phosphate buffer pH 7.4, containing 500 μg pig liver microsomes, 1.0 μM compound 6 and 0.5 mM UDPGA, at room temperature. Fluorescence spectra (excitation 200–420 nm; emission 400–600 nm) or fluorescence decrease at 390 nm excitation and 460 nm emission, were measured in these preliminary experiments, using a Shimadzu RF-5000 spectrophotofluorometer.
(§2) Most of the glucuronidation assays were carried out in 96 multiwell plate format, and incubations were carried out in 100 μL and at 37 °C, in the presence of Tris–HCl buffer pH 7.4, UDPGA, and the tested 7-hydroxycoumarin derivative, at the indicated concentrations. Fluorescence decline in the multiwell plate experiments was monitored every other minute, for 40 min, using an excitation filter at 405 nm and detection at 460 nm, in a Victor2 1420 Multilabel counter (PerkinElmer, Life Sciences, Turku, Finland). The fluorescence values were transformed into molarity using the aglycone substrates for making the respective standard curves. Slopes of the substrate concentration decrease per minute were calculated using linear regression analysis, in which the linear part of the kinetic assay indicated the glucuronidation rate. Enzyme catalyzed glucuronidation rate was calculated by subtracting the blank value from the full reaction value. The intra-assay variability of the kinetic assays was 6% when compound 6 was used as the aglycone substrate. Kinetic analyses were also performed in the same 96 multiwell plates format, with excitation filter at 405 nm and detection at 460 nm, using 6–8 different substrate concentrations per substrate and two different protein concentrations for both the wild-type and mutant UGT1A10. The higher concentrations, 13.5 mg/L for UGT1A10 and 12.0 mg/L for the UGT1A10 mutant, were used when the substrates were HFC, compounds 4 and 6, whereas the lower protein concentrations, 6.75 and 6.0 mg/L for UGT1A10 and the mutant, respectively, were used when the substrates were compounds 1, 2, 3, and 5.

[2] = test system: human liver microsomes (HLM); experiment: Glucuronidation by human liver microsomes (HLM); type: in vitro ADME; details: 10 μM aglycone
Procedure: (§3) A commercial HLM pool (cat no:452210, BD Gentest, Bedford, MA) and human intestine microsomes (HIM) pool (lot. no 1110189, XenoTech, Kansas City, KS) were purchased. Pig liver samples were prepared from untreated female pigs that were used for practicing surgical procedures at the University of Kuopio (currently: University of Eastern Finland, Kuopio campus). Other animal liver microsomes were prepared as described previously.[41] The Ethics Committee for Animal Experiments, University of Kuopio, approved these experiments.
as §1, §2

[3] = Excitation and emission fluorescence spectra of coumarin derivatives; type: physicochemical; set-up: dose or concentration left out as unconfirmed
Procedure: The absorbance spectra of 10 μM coumarin derivatives at 100 mM Tris–HCl pH 7.4 containing 10% dimethyl sulfoxide were measured using a Hitachi U-2000 Spectrophotometer (Tokyo, Japan). […] The excitation spectra was from 200 to 420 at 460 nm emission and the emission spectra was from 400 to 600 at 390 nm excitation (data in Supplementary Table S1 and Figures S1 and S2). The effect of pH on fluorescence intensity was determined at 405 nm excitation and 460 nm emission, in the presence of 1.5% trichloroacetic acid, 100 mM phosphate buffers at pH 5, 6, 7, 8, and 9, or 1.6 M glycine–NaOH pH 10.4.

[4] = Absorbance spectra of coumarin derivatives; type: physicochemical; details: 10 μM, 100 mM Tris–HCl pH 7.4, 10% dimethyl sulfoxide
Procedure: The absorbance spectra of 10 μM coumarin derivatives at 100 mM Tris–HCl pH 7.4 containing 10% dimethyl sulfoxide were measured using a Hitachi U-2000 Spectrophotometer (Tokyo, Japan). Excitation and emission fluorescence spectra of 0.1 μM coumarin derivatives in 100 mM Tris-HCl pH 7.4 were measured using a Shimadzu RF-5000 spectrophotofluorometer (Tokyo, Japan). The excitation spectra was from 200 to 420 at 460 nm emission and the emission spectra was from 400 to 600 at 390 nm excitation (data in Supplementary Table S1 and Figures S1 and S2). The effect of pH on fluorescence intensity was determined at 405 nm excitation and 460 nm emission, in the presence of 1.5% trichloroacetic acid, 100 mM phosphate buffers at pH 5, 6, 7, 8, and 9, or 1.6 M glycine–NaOH pH 10.4.

[5] = molecular target: T1, UGT1A10 mutant 1A10-H210M (Homo sapiens, UniProt Q9HAW8, H210M); experiment: Glucuronidation kinetics by UGT1A10 mutant 1A10-H210M (fluorescence decrease, 96-well plate); type: biochemical; details: mutant versus wild-type UGT1A10
T1 construct: His-tag; made in house; host or cells: baculovirus-infected SF9 insect cells
T1 sequence (Q9HAW8 26-530 H210M): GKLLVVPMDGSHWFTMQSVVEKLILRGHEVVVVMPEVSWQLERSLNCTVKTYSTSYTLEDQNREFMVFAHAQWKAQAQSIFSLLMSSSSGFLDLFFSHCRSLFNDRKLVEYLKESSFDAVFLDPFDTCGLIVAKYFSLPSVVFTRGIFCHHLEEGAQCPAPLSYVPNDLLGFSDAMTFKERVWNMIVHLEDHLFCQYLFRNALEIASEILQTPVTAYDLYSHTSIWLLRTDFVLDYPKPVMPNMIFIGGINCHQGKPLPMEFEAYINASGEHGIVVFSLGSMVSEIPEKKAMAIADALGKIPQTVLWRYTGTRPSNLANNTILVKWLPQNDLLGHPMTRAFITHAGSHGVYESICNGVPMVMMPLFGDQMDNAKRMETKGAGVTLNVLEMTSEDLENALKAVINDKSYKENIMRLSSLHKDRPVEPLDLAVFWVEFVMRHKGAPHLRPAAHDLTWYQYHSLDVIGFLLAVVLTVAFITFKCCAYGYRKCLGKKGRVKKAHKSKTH
Procedure: The UGT1A10 mutant 1A10-H210 M was prepared according to the QuikChange methodology, using the cloned UGT1A10 in pFastBac[42] as a template and the following two oligonucleotides:
The entire coding sequence of UGT1A10 in the mutant clone was sequenced, and subsequently, recombinant baculovirus was prepared and used to express the mutant enzyme in baculovirus-infected SF9 insect cells.
as §1, with “Preliminary experiments were done under different conditions than most of the later assays, namely in 2.5 mL of 100 mM phosphate buffer pH 7.4, containing 500 μg pig liver microsomes, 1.0 μM compound 6 and 0.5 mM UDPGA, at room temperature.” left out
Most of the glucuronidation assays were carried out in 96 multiwell plate format, and incubations were carried out in 100 μL and at 37 °C, in the presence of Tris–HCl buffer pH 7.4, UDPGA, and the tested 7-hydroxycoumarin derivative, at the indicated concentrations. Fluorescence decline in the multiwell plate experiments was monitored every other minute, for 40 min, using an excitation filter at 405 nm and detection at 460 nm, in a Victor2 1420 Multilabel counter (PerkinElmer, Life Sciences, Turku, Finland). The fluorescence values were transformed into molarity using the aglycone substrates for making the respective standard curves. […] Enzyme catalyzed glucuronidation rate was calculated by subtracting the blank value from the full reaction value. […]

[6] = test system: human intestinal microsomes (HIM); experiment: Glucuronidation by human intestinal microsomes (HIM); type: in vitro ADME; details: 10 μM aglycone
Procedure: as §3, §1, §2

[7] = test system: UGT1A1; experiment: Recombinant human UGT screen: glucuronidation by UGT1A1; type: biochemical; details: 10 μM aglycone, recombinant UGTs
Procedure: Recombinant human UGTs 1A1, 1A3, 1A6, 1A7, 1A8, 1A9, 1A10, 2A1, 2A2, 2A3, 2B4, 2B10, 2B7, and 2B17 were produced, as His-tagged proteins, in baculovirus-infected insect cells as previously described.[37]−[39] The relative expression level of each of these recombinant UGTs was evaluated by immunodetection, using monoclonal antibody against the His-tag, as described elsewhere.[40] A numeric value of 1.0 was given to the expression level of UGT1A8 and the relative expression level of each of the other UGTs was related to this value. Normalized activities were obtained by dividing the glucuronidation rate values by the relative expression level of the tested UGT. […] The expression levels of the UGTs in the commercial samples could not be determined, so their protein concentration was used to calculate the reaction rate.
The incubation mixtures for glucuronidation assays contained 100 mM Tris-HCl buffer pH 7.4, 2.5 mM MgCl2, 0.5 mM UDPGA, recombinant UGT, or microsomes as the enzyme source and 0–15 μM of the test aglycone substrate. […] In subsequent experiments, the control samples lacked the enzyme source since it gave the highest fluorescence background. […] Fluorescence spectra (excitation 200–420 nm; emission 400–600 nm) or fluorescence decrease at 390 nm excitation and 460 nm emission, were measured in these preliminary experiments, using a Shimadzu RF-5000 spectrophotofluorometer. […]

Compound	Selectivity among human UGTs ([1]; other UGTs at very low rates)	Glucuronidation by HLM (in words) [2]	Fluorescence EMmax [3] [nm]	Fluorescence EXmax [3] [nm]	Amax [4] [nm]	ε abs [4] [M⁻¹ cm⁻¹]	Change of Km by the H210M mutation (in words) [5]	UGT(s) that primarily glucuronidate the substrate ([1]; control substrates)	Glucuronidation rate, HLM compared with HIM (in words) [6]	Glucuronidation rate by UGT1A1 relative to the corresponding UGT1A10 rate [7]
O=c1oc2cc(O)ccc2cc1-c1ccc(O)cc1 [Compound 2, 7-hydroxy-3-(4-hydroxyphenyl)-2H-chromen-2one]	selective for UGT1A10	not glucuronidated by HLM at all, or only at very low rates; also recorded: very low or below the detection limit	475	395	352	20000	considerably increased	–	–	–
O=c1cc(C(F)(F)F)c2ccc(O)cc2o1 [HFC, 4-(trifluoromethyl)-7-hydroxycoumarin, reference compound]	–	–	–	–	–	–	increase	UGT1A6 and UGT1A10	much higher rates by HLM than by HIM	–
COc1ccc(-c2cc3ccc(O)cc3oc2=O)cc1 [Compound 3, 7-hydroxy-3-(4-methoxyphenyl)coumarin]	–	–	472	368	350	17300	–	–	–	~20%
O=c1oc2cc(O)ccc2cc1-c1ccc(F)cc1 [Compound 1, 7-hydroxy-3-(4-fluorophenyl)-2H-chromen-2-one]	–	–	466	–	344	19000	–	–	–	about 40%
